One test deals with CDK7/CycH/MNAT1 (Homo sapiens (Human), UniProt P50613). Description: Biochemical assay for CDK7 (TR-FRET kinase assay). To be noted: 60 min pre-incubation, 1 mM ATP; for inhibition at 10 µM: 10 μM compound, read-out: % inhibition @ 10 μM; for IC50: read-out: IC50. The procedure, abridged:
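CDK7/CycH/MNAT1 (5 nM) was preincubated with compound for 60 min at room temperature, then reacted for 60 min with 100 nM ULight-MBP and 1 mM ATP in 1% DMSO. Irreversibility was probed with 20, 60 and 180 min preincubations.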
In general terms: Time-resolved FRET reads energy transfer from a long-lived donor to a nearby acceptor.

For test [1], the system named is RNA polymerase II CTD phosphorylation (MDA-MB-231/NCI-H358 cells). Description: Inhibition of RNA polymerase II CTD phosphorylation in cell western assay. In kind it is cell-based. To be noted: 4 hours incubation, phospho RNA Pol II Ser-5 or Ser-2. The method, then:
25000 cells (MDA-MB-231/NCI-H358) were seeded in 96 well black clear bottom plate incubated for overnight before addition of selected compound. 3 fold dilutions of selected compound diluted in DMSO starting from 10 μM, added to cells and incubated for 4 hours at 37° C., 5% CO2 incubator. Cells were washed once with 100 μl of phosphate buffered saline (sigma #P3813), then fixed with 100 μl/well of 4% Para formaldehyde for 60 min at room temperature, in dark. The cells were washed 3 times with 100 μl of wash buffer (PBS with 0.1% Triton-X-100), later blocked for 2 hours at room temperature in blocking buffer (5% BSA in PBST). Cells were stained overnight at 4° C. with Phospho RNA Pol II (S5) (Millipore #04-1572, Abcam #5131) or Phospho RNA Pol II (Ser-2), antibody (Bethyl labs #A300-654-A) in blocking buffer. Post incubation cells were washed with Delifia wash buffer (Perkin Elmer #4010-0010). Cells were treated with LANCE secondary antibodies (LANCE® Eu-W1024 perkin elmer #AD-0076 for phospho Ser-5 CTD RNA pol-II and Delfia Eu-N1 anti rabbit IgG Perkin elmer #AD0106 for phospho Ser-2 CTD RNA pol-II) for 2 hours in assay buffer (Perkin Elmer #1244-111), Cells were washed 3 times with Delfia wash buffer post incubation, Enhancement solution (Perkin Elmer #1244-105) added and incubated for 20 mins. Europium readings were taken in Victor-3 instrument. Cell normalization was done using Hoechst dye (0.5 μg/ml).
Selected compounds were screened in the above mentioned assay procedure. The EC50 values are summarised in the below table; wherein group “A” refers to an EC50 value of less than or equal to 1 μM, group “B” refers to EC50 value in range of 1 to 10 μM and group “C” refers to EC50 value of greater than 10 μM.

CDK7/CycH/MNAT1, sequence (P50613 whole entry): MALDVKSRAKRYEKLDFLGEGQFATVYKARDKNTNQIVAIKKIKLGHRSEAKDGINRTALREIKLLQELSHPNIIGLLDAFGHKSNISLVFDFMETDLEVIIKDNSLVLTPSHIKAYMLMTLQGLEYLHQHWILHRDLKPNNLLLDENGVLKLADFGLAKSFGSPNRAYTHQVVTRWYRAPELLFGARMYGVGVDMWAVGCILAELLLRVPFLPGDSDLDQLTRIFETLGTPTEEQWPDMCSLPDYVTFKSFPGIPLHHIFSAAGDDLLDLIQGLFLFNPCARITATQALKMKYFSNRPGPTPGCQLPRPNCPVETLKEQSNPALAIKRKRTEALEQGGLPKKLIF
CDK7/CycH/MNAT1, sequence (P51946 whole entry partner): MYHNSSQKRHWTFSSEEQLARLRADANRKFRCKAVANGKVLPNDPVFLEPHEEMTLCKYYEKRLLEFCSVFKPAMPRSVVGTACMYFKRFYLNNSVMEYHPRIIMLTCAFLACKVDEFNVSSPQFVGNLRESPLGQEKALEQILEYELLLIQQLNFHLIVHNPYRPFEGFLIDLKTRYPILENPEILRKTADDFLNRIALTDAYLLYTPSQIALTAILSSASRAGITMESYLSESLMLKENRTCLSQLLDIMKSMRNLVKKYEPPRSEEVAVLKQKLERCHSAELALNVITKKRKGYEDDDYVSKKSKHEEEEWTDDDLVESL
CDK7/CycH/MNAT1, sequence (P51948 whole entry partner): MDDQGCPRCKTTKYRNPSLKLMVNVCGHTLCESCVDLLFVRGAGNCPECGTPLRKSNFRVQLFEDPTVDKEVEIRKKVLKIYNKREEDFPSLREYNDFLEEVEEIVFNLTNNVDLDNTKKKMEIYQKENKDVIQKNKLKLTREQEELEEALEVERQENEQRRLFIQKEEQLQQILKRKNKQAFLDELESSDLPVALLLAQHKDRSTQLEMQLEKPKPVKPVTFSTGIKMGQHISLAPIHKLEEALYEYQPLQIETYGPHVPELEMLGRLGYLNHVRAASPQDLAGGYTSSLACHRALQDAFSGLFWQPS

For the compound `CC(C)c1cnn2c(Nc3cccc(NC(=O)[C@H]4CC[C@H](NC(=O)/C=C/CN(C)C)CC4)c3)nc(OC3CCN(C)CC3)nc12` [Compound 132, (1,4-Trans)-4-((E)-4-(dimethylamino)but-2-enamido)-N-(3-((8-isopropyl-2-((1-methylpiperidin-4-yl)oxy)pyrazolo[1,5-a][1,3,5]triazin-4-yl)amino)phenyl)cyclohexane-1-carboxamide], on CDK7/CycH/MNAT1, the inhibition at 10 µM was found to be 90% and the IC50 was below 0.3 µM. Further, in test [1], the EC50 was above 10 µM.

In the case of `C=CC(=O)N1CCC(C(=O)Nc2cccc(CNc3nc(NC4CCOCC4)nc4c(C(C)C)cnn34)c2)C1` (centres unmarked) [Compound 4, 1-acryloyl-N-(3-(((8-isopropyl-2-((tetrahydro-2H-pyran-4-yl)amino)pyrazolo[1,5-a][1,3,5]triazin-4-yl)amino)methyl)phenyl)pyrrolidine-3-carboxamide], at CDK7/CycH/MNAT1, the inhibition at 10 µM is 93% and the IC50 is below 0.3 µM. Besides, the EC50 in test [1] was at most 1 µM.

In the case of `C=CC(=O)N1CCC(C(=O)Nc2ccc(F)c(CNc3nc(NC4CCOCC4)nc4c(C(C)C)cnn34)c2)C1` (centres unmarked) [Compound 32, 1-acryloyl-N-(4-fluoro-3-(((8-isopropyl-2-((tetrahydro-2H-pyran-4-yl)amino)pyrazolo[1,5-a][1,3,5]triazin-4-yl)amino)methyl)phenyl)pyrrolidine-3-carboxamide], on CDK7/CycH/MNAT1, the inhibition at 10 µM came to 91% and the IC50 is below 0.3 µM. The compound also had an EC50 in test [1] of 1 to 10 µM.

On to `C=CC(=O)N1CCC(NC(=O)c2cccc(Nc3nc(OC4CCN(C)CC4)nc4c(C(C)C)cnn34)c2)CC1` [Compound 128, N-(1-acryloylpiperidin-4-yl)-3-((8-isopropyl-2-((1-methylpiperidin-4-yl)oxy)pyrazolo[1,5-a][1,3,5]triazin-4-yl)amino)benzamide], for which, at CDK7/CycH/MNAT1, the inhibition at 10 µM was determined as 93% and the IC50 was below 0.3 µM. This compound came in with an EC50 in test [1] of 1 to 10 µM.

Regarding `C=CC(=O)N1CCOCC1C(=O)Nc1cccc(CNc2nc(NC3CCOCC3)nc3c(C(C)C)cnn23)c1` (centres unmarked) [Compound 24, 4-acryloyl-N-(3-(((8-isopropyl-2-((tetrahydro-2H-pyran-4-yl)amino)pyrazolo[1,5-a][1,3,5]triazin-4-yl)amino)methyl)phenyl)morpholine-3-carboxamide], on CDK7/CycH/MNAT1, the inhibition at 10 µM was determined as 98% and the IC50 is below 0.3 µM. In test [1], this compound returned an EC50 of at most 1 µM.

For `C=CC(=O)N1CCC(C(=O)Nc2cccc(CNc3nc(OC4CCOCC4)nc4c(C(C)C)cnn34)c2)C1` (centres unmarked) [Compound 95, 1-acryloyl-N-(3-(((8-isopropyl-2-((tetrahydro-2H-pyran-4-yl)oxy)pyrazolo[1,5-a][1,3,5]triazin-4-yl)amino)methyl)phenyl)pyrrolidine-3-carboxamide], on CDK7/CycH/MNAT1, the inhibition at 10 µM came out at 93% and the IC50 is below 0.3 µM. This compound also yielded an EC50 in test [1] of at most 1 µM.

Consider `C=CC(=O)N1CCC1C(=O)Nc1cccc(CNc2nc(OC3CCN(C)CC3)nc3c(C(C)C)cnn23)c1` (centres unmarked) [Compound 94, 1-acryloyl-N-(3-(((8-isopropyl-2-((1-methylpiperidin-4-yl)oxy)pyrazolo[1,5-a][1,3,5]triazin-4-yl)amino)methyl)phenyl)azetidine-2-carboxamide], for which, on CDK7/CycH/MNAT1, the inhibition at 10 µM came out at 99% and the IC50 is below 0.3 µM. In addition, the EC50 in test [1] was at most 1 µM.

As to `C=CC(=O)N[C@H]1CC[C@@H](C(=O)Nc2cccc(CNc3nc(OC4CCN(C)CC4)nc4c(CC)cnn34)c2)CC1` [Compound 90, (1,4-cis)-4-acrylamido-N-(3-(((8-ethyl-2-((1-methylpiperidin-4-yl)oxy)pyrazolo[1,5-a][1,3,5]triazin-4-yl)amino)methyl)phenyl)cyclohexane-1-carboxamide], at CDK7/CycH/MNAT1, the inhibition at 10 µM worked out at 95% and the IC50 is below 0.3 µM. Moreover, the EC50 in test [1] lay within 1 to 10 µM.

Regarding `C=CC(=O)N1CCC(C(=O)Nc2cccc(CNc3nc(NC4CCOCC4)nc4c(C(C)C)cnn34)c2)C1` (single isomer, unassigned) [Compound 5, 1-acryloyl-N-(3-(((8-isopropyl-2-((tetrahydro-2H-pyran-4-yl)amino)pyrazolo[1,5-a][1,3,5]triazin-4-yl)amino)methyl)phenyl)pyrrolidine-3-carboxamide], at CDK7/CycH/MNAT1, the inhibition at 10 µM was determined as 94% and the 50% inhibitory concentration (IC50) is below 0.3 µM. The same compound returned an EC50 in test [1] of 1 to 10 µM.

As to `C=CS(=O)(=O)N1CCCCC1C(=O)Nc1cccc(CNc2nc(NC3CCOCC3)nc3c(C(C)C)cnn23)c1` (centres unmarked) [Compound 78, N-(3-(((8-isopropyl-2-((tetrahydro-2H-pyran-4-yl)amino)pyrazolo [1,5-a][1,3,5]triazin-4-yl)amino)methyl)phenyl)-1-(vinylsulfonyl)piperidine-2-carboxamide], on CDK7/CycH/MNAT1, the inhibition at 10 µM turned out to be 100% and the IC50 is below 0.3 µM. The compound further showed an EC50 in test [1] of at most 1 µM.

Take `CC(C)c1cnn2c(NCc3cccc(NC(=O)C4CCCN(C(=O)/C=C/CN(C)C)C4)c3)nc(OC3CCN(C)CC3)nc12` (centres unmarked) [Compound 122, (E)-1-(4-(dimethylamino)but-2-enoyl)-N-(3-(((8-isopropyl-2-((1-methyl-piperidin-4-yl)oxy)pyrazolo[1,5-a][1,3,5]triazin-4-yl)amino)methyl)phenyl)-piperidine-3-carboxamide]: the IC50 on CDK7/CycH/MNAT1 is below 0.3 µM. In addition, the EC50 in test [1] was above 10 µM.

Consider `C=CC(=O)N1CCC(C(=O)Nc2cccc(CNc3nc(NC4CCCC(N)C4)nc4c(C(C)C)cnn34)c2)C1` (centres unmarked) [Compound 15, 1-acryloyl-N-(3-(((2-((3-aminocyclohexyl)amino)-8-isopropylpyrazolo[1,5-a][1,3,5]triazin-4-yl)amino)methyl)phenyl)pyrrolidine-3-carboxamide], for which, on CDK7/CycH/MNAT1, the inhibition at 10 µM was 98% and the IC50 was below 0.3 µM. For the same compound, in test [1], the EC50 was above 10 µM.

`C=CC(=O)N1CCC(C(=O)Nc2cccc(CNc3nc(N[C@@H]4CCNC[C@H]4F)nc4c(C(C)C)cnn34)c2)C1` (stereo partly drawn) [Compound 14, 1-acryloyl-N-(3-(((2-(((3R,4R)-3-fluoropiperidin-4-yl)amino)-8-isopropylpyrazolo[1,5-a][1,3,5]triazin-4-yl)amino)methyl)phenyl)pyrrolidine-3-carboxamide]: on CDK7/CycH/MNAT1, the inhibition at 10 µM worked out at 97% and the IC50 is below 0.3 µM. In test [1], this compound registered an EC50 of 1 to 10 µM.

In the case of `C=CC(=O)N[C@H]1CC[C@@H](C(=O)Nc2cccc(CNc3nc(OC4CCOCC4)nc4c(C(C)C)cnn34)c2)CC1` [Compound 97, (1,4-cis)-4-acrylamido-N-(3-(((8-isopropyl-2-((tetrahydro-2H-pyran-4-yl)oxy)pyrazolo[1,5-a][1,3,5]triazin-4-yl)amino)methyl)phenyl)cyclohexane-1-carboxamide], at CDK7/CycH/MNAT1, the inhibition at 10 µM stood at 87% and the IC50 fell in the range of 0.3 to 1 µM. The compound also registered an EC50 in test [1] of 1 to 10 µM.

For `C=CC(=O)N1CCCC(C(=O)Nc2cccc(C(C)Nc3nc(OC4CCN(C)CC4)nc4c(C(C)C)cnn34)c2)C1` (centres unmarked) [Compound 119, 1-acryloyl-N-(3-(1-((8-isopropyl-2-((1-methylpiperidin-4-yl)oxy)pyrazolo[1,5-a][1,3,5]triazin-4-yl)amino)ethyl)phenyl)piperidine-3-carboxamide], at CDK7/CycH/MNAT1, the inhibition at 10 µM is 99% and the IC50 is below 0.3 µM. For the same compound, the EC50 in test [1] was above 10 µM.

For orientation: inhibition means the share of the control response that was lost under treatment. Usually IC50 stands for the concentration needed to halve the response being measured. The term EC50 denotes the concentration giving half of the maximal effect. A high value points to weaker potency.

Source of the values: US11186576B2, “Pyrazolo[1,5-A][1,3,5]triazine and pyrazolo[1,5-A]pyrimidine derivatives as CDK inhibitors” (Aurigene Discovery Technologies Limited, priority 2015, dated 2021).
